Assay results: patent publication US4218477A, “Primary aminoacylanilides, methods of making the same and use as antiarrhythmic drugs” (priority 1976, dated 1980)
Like-named read-outs stand apart in the source and are kept apart here.

Assays:
ventricular fibrillation = experiment: Protection against chloroform induced ventricular fibrillation in mice, oral (Table I); type: in vivo, female Swiss albino mice (HAM/ICR)
Experimental: (§1) The experiments on mice were performed according to a modification of the method described by J. W. Lawson, "Antiarrhythmic activity of some isoquinoline derivatives determined by a rapid screening procedure in the mouse", J. Pharm. Exp. Therap. Vol. 160, pp. 22-31 (1968). This method is based upon the observation that when an unanesthetized, untreated mouse is exposed to chloroform vapor its respiration soon ceases and at that time both electrocardiographic and visual inspection reveal that the cardiac ventricles are fibrillating. If the mouse is treated appropriately with known antiarrhythmic agents prior to exposure to chloroform, the respiratory failure is not accompanied by ventricular fibrillation.

mice [1] = experiment: Ataxia just before CHCl3 challenge in mice, oral (Table I); type: in vivo, female Swiss albino mice (HAM/ICR)
Experimental: as §1

ventricular arrhythmias [2] = type: in vivo, dogs; conditions: for Complete Clearing, Duration: return of 50% of suppressed abnormal beats; for Complete Clearing, Onset: abnormal ventricular beats less than 5% of total beats
Experimental: Vol. 1, pp. 1318-1328 (1950). […] The electrocardiographic, cardiovascular and other drug effects were monitored.
Table II summarizes the results of oral administration:
Dogs #215 and #220 given 50 mg/kg dose at 0 mins and 100 mg/kg dose at 24
The electrocardiographic, cardiovascular and other drug effects were monitored.

ventricular arrhythmias [3] = experiment: animal or person; conditions: for minimal effective dose: Canis lupus familiaris
Experimental: Tests on dogs with the compound 2-amino-2',6'-propionoxylidide were conducted according to a modification of the method described by A. S. Harris in "Delayed Development of Ventricular Ectopic Rhythms Following Experimental Coronary Occlusions", Circ. Vol. 1, pp. 1318-1328 (1950). In this method the dogs were anesthetized, the heart was exposed, and the anterior descending branch of the left coronary artery was ligated in two stages. The thorax was closed and the dog was allowed to recover from the anesthesia. […] B. B. Clark and J. R. Cummings, "Arrhythmias Following Experimental Coronary Occlusion and Their Response to Drugs", Annals New York Academy of Sciences, Vol. 65, pp. 543-551 (1956). […] The electrocardiographic, cardiovascular and other drug effects were monitored.
The dosage schedule was: 1st hr.: 15 mg/kg/hr; 2nd hr.: 30 mg/kg/hr; 3rd hr.: 60 mg/kg/hr. Infusions were stopped at the first sign of toxicity other than emesis.
The compound 3-amino-2',6'-butyroxylidide was also tested on dogs, according to a modification of the method of Harris as previously described. As in the previously described tests, unanesthetized dogs were supported in canvas slings and were treated either intravenously or orally with doses of 3-amino-2',6'-butyroxylidide. The electrocardiographic, cardiovascular and other drug effects were monitored.

frog sciatic nerve = experiment: Local anesthetic effect in vitro on the frog sciatic nerve; conditions: 20 mM, exposure for 96 min
cardiac arrhythmias = experiment: Antiarrhythmic effect in mice, oral (summary statement); type: in vivo
Experimental: as §1

mice [4] = conditions: mouse, in vivo, po, 1440 min
[5] = Acute oral toxicity in mice (24 Hr. mortality); conditions: mouse, in vivo, po
[6] = system: chloroform induced fibrillation; experiment: Protection against chloroform induced fibrillation in mice, subcutaneous, potency relative to lidocaine (Table IV); type: in vivo; conditions: s.c., 20 min, statistical mean (confidence limits)
Experimental: as §1
The procedure used was a modification of the method previously described. The modification involved using a standard time of 20 minutes for each test run and four different doses of the same drug. Route of administration was subcutaneous.

[7] = system: chloroform-induced arrhythmias; experiment: animal or person; conditions: Mus musculus
[8] = oral, cumulative dose 100 mg/kg as HCl
[9] = oral, cumulative dose 300 mg/kg as HCl

SMILES: Cc1cccc(C)c1NC(=O)C(C)N (racemic) [2-amino-2',6'-propionoxylidide]
- Proportion of mice protected against fibrillation at LD0.1 (ventricular fibrillation; dose LD0.1, drug given 20 min before CHCl3 challenge): 9/10
- Proportion of mice protected against fibrillation at LD0.1 (ventricular fibrillation; dose LD0.1, drug given 40 min before CHCl3 challenge): 9/10
- Proportion of mice protected against fibrillation at LD0.1 (ventricular fibrillation; dose LD0.1, drug given 80 min before CHCl3 challenge): 10/10
- Proportion of mice protected against fibrillation at LD0.1 (ventricular fibrillation; dose LD0.1, drug given 160 min before CHCl3 challenge): 9/10
- Proportion of mice having ataxia just before CHCl3 challenge (mice [1]; dose LD0.1, 20 min): 10/10
- Proportion of mice having ataxia just before CHCl3 challenge (mice [1]; dose LD0.1, 40 min): 10/10
- Proportion of mice having ataxia just before CHCl3 challenge (mice [1]; dose LD0.1, 80 min): 8/10
- Proportion of mice having ataxia just before CHCl3 challenge (mice [1]; dose LD0.1, 160 min): 5/10
- adverse reactions (ventricular arrhythmias [2]; dog, in vivo, po): unaccompanied by any discernible adverse reactions
- Overt Toxicity: Convulsions, Onset (ventricular arrhythmias [2]; dog, in vivo, po, 50 mg/kg): None
- Overt Toxicity: Emesis (ventricular arrhythmias [2]; dog, in vivo, po, 50 mg/kg): None
- Overt Toxicity: Nystagmus (ventricular arrhythmias [2]; dog, in vivo, po, 50 mg/kg): None
- Overt Toxicity: Other (ventricular arrhythmias [2]; dog, in vivo, po, 50 mg/kg): None
- Overt Toxicity: Tremors (ventricular arrhythmias [2]; dog, in vivo, po, 50 mg/kg): None
- Overt Toxicity: Convulsions, Onset (ventricular arrhythmias [2]; dog, in vivo, po, 100 mg/kg): None
- Overt Toxicity: Emesis (ventricular arrhythmias [2]; dog, in vivo, po, 100 mg/kg): None
- Overt Toxicity: Nystagmus (ventricular arrhythmias [2]; dog, in vivo, po, 100 mg/kg): None
- Overt Toxicity: Other (ventricular arrhythmias [2]; dog, in vivo, po, 100 mg/kg): None
- Overt Toxicity: Tremors (ventricular arrhythmias [2]; dog, in vivo, po, 100 mg/kg): None
- Overt Toxicity: Convulsions, Onset (ventricular arrhythmias [2]; dog, in vivo, po, 150 mg/kg): None
- Overt Toxicity: Nystagmus (ventricular arrhythmias [2]; dog, in vivo, po, 150 mg/kg): None
- Overt Toxicity: Other (ventricular arrhythmias [2]; dog, in vivo, po, 150 mg/kg): None
- Overt Toxicity: Tremors (ventricular arrhythmias [2]; dog, in vivo, po, 150 mg/kg): None
- Overt Toxicity: Convulsions, Duration (ventricular arrhythmias [2]; dog, in vivo, po, 200 mg/kg): > 3 min
- Overt Toxicity: Nystagmus (ventricular arrhythmias [2]; dog, in vivo, po, 200 mg/kg): None
- Overt Toxicity: Other (ventricular arrhythmias [2]; dog, in vivo, po, 200 mg/kg): None
- Overt Toxicity: Convulsions, Duration (ventricular arrhythmias [2]; dog, in vivo, po, 300 mg/kg): 17 min
- Overt Toxicity: Convulsions, Onset (ventricular arrhythmias [2]; dog, in vivo, po, 300 mg/kg): None
- Overt Toxicity: Emesis (ventricular arrhythmias [2]; dog, in vivo, po, 300 mg/kg): None
- Overt Toxicity: Nystagmus (ventricular arrhythmias [2]; dog, in vivo, po, 300 mg/kg): None
- Overt Toxicity: Other (ventricular arrhythmias [2]; dog, in vivo, po, 300 mg/kg): None
- Overt Toxicity: Tremors (ventricular arrhythmias [2]; dog, in vivo, po, 300 mg/kg): None
- suppression of the ventricular arrhythmias (ventricular arrhythmias [2]; oral doses, dogs): distinct suppression of the ventricular arrhythmias
- Partial Clearing, Onset (ventricular arrhythmias [2]; oral, cumulative dose 50 mg/kg as HCl, 50-95% reduction of abnormal ventricular beats): None
- Complete Clearing, Duration (ventricular arrhythmias [2]; oral, cumulative dose 50 mg/kg as HCl, *** followed by off and on bursts): 195 min
- Complete Clearing, Onset (ventricular arrhythmias [2]; [8]): 120 min
- Complete Clearing, Duration (ventricular arrhythmias [2]; [8]): 45 min
- Complete Clearing, Duration (ventricular arrhythmias [2]; oral, cumulative dose 200 mg/kg as HCl, *** followed by off and on bursts): 30 min
- Complete Clearing, Onset (ventricular arrhythmias [2]; [9]): 30 min
- Complete Clearing, Duration (ventricular arrhythmias [2]; [9]): > 180 min
- minimal effective dose (ventricular arrhythmias [3]; iv, read-out: Antiarrhythmic doses (cumul.)): 75 mg/kg
- minimal effective dose (ventricular arrhythmias [3]; iv, read-out: cumulative dose providing antiarrhythmic effects): 75 mg/kg
- adverse reactions (ventricular arrhythmias [3]; dog, in vivo, iv): unaccompanied by any discernible adverse reactions
- Number of dogs showing antiarrhythmic effect (ventricular arrhythmias [3]; i.v. infusion 15, 30, 60 mg/kg/hr, dogs tested: lidocaine 2, test compound 1, abnormal beats less than 5% of total): 1
- Toxic doses (cumul.) (ventricular arrhythmias [3]; i.v. infusion, stopped at first sign of toxicity other than emesis, one value per dog): 81 mg/kg
- Duration of Antiarrhythmic effect (ventricular arrhythmias [3]; i.v. infusion, return of 50% of suppressed abnormal ventricular beats, one value per dog): 71 min
- suppression of the ventricular arrhythmias (ventricular arrhythmias [3]; intravenous doses, dogs): distinct suppression of the ventricular arrhythmias
- block of the action potential of the nerve (frog sciatic nerve): does not block the action potential at all
- maximum oral dosage providing antiarrhythmic effects (cardiac arrhythmias): about 380 mg/kg
- 24 Hr. Mortality LD0.1 (mice [4]): 382 mg/kg
- LD50 at 24 h [5]: 529 mg/kg
- Relative Potency (ED50 test compound/ED50 lidocaine) [6]: 0.33 (0.20 - 0.54)
- ED50 [7]: 172 mg/kg
